# Experimental data reported in ChEMBL document CHEMBL4190315, “Novel cinnamamide-dibenzylamine hybrids: Potent neurogenic agents with antioxidant, cholinergic, and neuroprotective properties as innovative drugs for Alzheimer's disease” (Eur J Med Chem, 2017).
# Activity calls are given as the source filed them. No cut-off for these calls is given here.
# Assays:
# [1] = molecular target: Acetylcholinesterase (Electrophorus electricus) (UniProt O42275); assay: Inhibition of electric eel AChE at 0.001 to 100 uM using acetylthiocholine iodide as substrate preincubated for 5 mins followed by substrate addition measured up to 180 secs by spectrophotometric analysis relative to control
# [2] = Antioxidant activity assessed as inhibition of AAPH-induced peroxyl radical generation measured as trolox equivalent preincubated for 15 mins followed by AAPH addition measured every min for 120 mins by ORAC-FL assay; format: functional
# Cholinesterase [3] = molecular target: Cholinesterase (Equus caballus, UniProt P81908); assay: Inhibition of equine serum BChE using S-butyrylthiocholine iodide as substrate preincubated for 5 mins followed by substrate addition measured up to 180 secs by spectrophotometric analysis
# [4] = molecular target: Amyloid-beta precursor protein (Homo sapiens) (UniProt P05067); assay: Inhibition of HFIP pretreated amyloid beta (1 to 42) (unknown origin) self-aggregation at 20 uM after 48 hrs by thioflavin T fluorescence assay relative to control
# [5] = molecular target: Cholinesterase (Equus caballus) (UniProt P81908); assay: Inhibition of equine serum BChE at 0.001 to 100 uM using S-butyrylthiocholine iodide as substrate preincubated for 5 mins followed by substrate addition measured up to 180 secs by spectrophotometric analysis relative to control
# [6] = Effective permeability of compound at 50 ug/mL after 16 hrs by PAMPA-BBB assay
# Acetylcholinesterase [7] = molecular target: T1, Acetylcholinesterase (Homo sapiens, UniProt P22303); assay: Inhibition of human erythrocytic AChE using acetylthiocholine iodide as substrate preincubated for 5 mins followed by substrate addition measured up to 180 secs by spectrophotometric analysis
# Cholinesterase [8] = molecular target: Cholinesterase (Homo sapiens, UniProt P06276); assay: Inhibition of human serum BChE using S-butyrylthiocholine iodide as substrate preincubated for 5 mins followed by substrate addition measured up to 180 secs by spectrophotometric analysis
# PC-12 [9] = assay: Neuroprotective activity against H2O2-induced oxidative damage in rat PC12 cells assessed as increase in cell viability at 1.25 to 25 uM preincubated for 2 hrs followed by H2O2 challenge measured after 24 hrs by MTT assay; format: functional, cell-based
# PC-12 [10] = assay: Cytotoxicity against rat PC12 cells at 1.25 to 50 uM after 24 hrs by MTT assay; format: cell-based; conditions: pc-12, 24 h
# Acetylcholinesterase [11] = molecular target: Acetylcholinesterase (Electrophorus electricus, UniProt O42275); assay: Inhibition of electric eel AChE using acetylthiocholine iodide as substrate preincubated for 5 mins followed by substrate addition measured up to 180 secs by spectrophotometric analysis
# [12] = Selectivity index, ratio of IC50 for equine serum BChE to IC50 for electric eel AChE
# [13] = Metal chelating activity assessed as mole fraction of compound required to show 1:2 stoichiometry for Cu2+-compound complex at 25 uM after 30 mins by Job's plot analysis
# [14] = Copper-chelating activity assessed as red shift by measuring maximum absorption at 25 uM after 30 mins by UV-vis spectrophotometric method (reference value: 230 nanometer)
# [15] = Inhibition of Cu2+-mediated aggregation of amyloid beta (1 to 42) (unknown origin) at 50 uM after 24 hrs by thioflavin T fluorescence assay relative to control
# Mus musculus [16] = assay: Reversal of scopolamine-induced memory impairment in Kunming mouse assessed as increase in step-down latency time at 5 mg/kg, po administered 60 mins prior to training trial followed by scopolamine challenge at 30 mins post dose measured 24 hrs after training trial by passive avoidance test; format: functional, organism-based
# Acetylcholinesterase [17] = molecular target: T1, Acetylcholinesterase; assay: Mixed-type inhibition of AChE (unknown origin) at 2.25 to 9 uM using acetylthiocholine iodide as substrate preincubated for 5 mins followed by substrate addition measured up to 180 secs by Lineweaver-Burk plot analysis
# [18] = Metal chelating activity assessed as Zn2+-compound complex formation at 25 uM after 30 mins by UV-vis spectrophotometric method
# [19] = Metal chelating activity assessed as Fe3+-compound complex formation at 25 uM after 30 mins by UV-vis spectrophotometric method
# [20] = Copper-chelating activity assessed as minimum absorption at 25 uM after 30 mins by UV-vis spectrophotometric method (reference value: 260 nanometer)
# [21] = Inhibition of Cu2+-mediated aggregation of amyloid beta (1 to 42) (unknown origin) assessed as reduction in fibril formation at 50 uM after 24 hrs by transmission electron microscopic analysis
# [22] = Metal chelating activity assessed as Fe2+-compound complex formation at 25 uM after 30 mins by UV-vis spectrophotometric method
# Mus musculus [23] = assay: Reversal of scopolamine-induced memory impairment in Kunming mouse assessed as increase in step-down latency time at 5 to 15 mg/kg, po administered 60 mins prior to training trial followed by scopolamine challenge at 30 mins post dose measured 24 hrs after training trial by passive avoidance test; format: functional, organism-based
# PC-12 [24] = assay: Neuroprotective activity against H2O2-induced oxidative damage in rat PC12 cells assessed as increase in cell viability at 25 uM preincubated for 2 hrs followed by H2O2 challenge measured after 24 hrs by MTT assay; format: functional, cell-based
# Sequence of Cholinesterase (Homo sapiens, UniProt P06276) (P06276 whole entry): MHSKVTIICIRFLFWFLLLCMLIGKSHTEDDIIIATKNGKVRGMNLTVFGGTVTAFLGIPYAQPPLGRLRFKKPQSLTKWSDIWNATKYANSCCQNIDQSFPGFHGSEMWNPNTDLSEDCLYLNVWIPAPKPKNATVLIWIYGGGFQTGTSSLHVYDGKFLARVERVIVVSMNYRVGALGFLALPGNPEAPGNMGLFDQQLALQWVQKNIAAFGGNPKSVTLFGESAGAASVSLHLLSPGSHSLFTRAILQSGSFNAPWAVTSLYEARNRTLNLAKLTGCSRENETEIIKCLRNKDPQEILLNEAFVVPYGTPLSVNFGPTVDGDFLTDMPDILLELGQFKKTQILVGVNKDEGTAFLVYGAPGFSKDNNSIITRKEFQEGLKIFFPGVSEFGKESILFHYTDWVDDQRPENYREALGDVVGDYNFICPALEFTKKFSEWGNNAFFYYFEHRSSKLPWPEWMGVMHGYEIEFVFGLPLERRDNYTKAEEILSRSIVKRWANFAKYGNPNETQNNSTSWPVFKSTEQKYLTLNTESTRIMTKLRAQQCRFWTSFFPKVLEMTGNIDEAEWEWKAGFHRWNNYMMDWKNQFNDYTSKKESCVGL
# Sequence of Amyloid-beta precursor protein (Homo sapiens) (P05067 whole entry): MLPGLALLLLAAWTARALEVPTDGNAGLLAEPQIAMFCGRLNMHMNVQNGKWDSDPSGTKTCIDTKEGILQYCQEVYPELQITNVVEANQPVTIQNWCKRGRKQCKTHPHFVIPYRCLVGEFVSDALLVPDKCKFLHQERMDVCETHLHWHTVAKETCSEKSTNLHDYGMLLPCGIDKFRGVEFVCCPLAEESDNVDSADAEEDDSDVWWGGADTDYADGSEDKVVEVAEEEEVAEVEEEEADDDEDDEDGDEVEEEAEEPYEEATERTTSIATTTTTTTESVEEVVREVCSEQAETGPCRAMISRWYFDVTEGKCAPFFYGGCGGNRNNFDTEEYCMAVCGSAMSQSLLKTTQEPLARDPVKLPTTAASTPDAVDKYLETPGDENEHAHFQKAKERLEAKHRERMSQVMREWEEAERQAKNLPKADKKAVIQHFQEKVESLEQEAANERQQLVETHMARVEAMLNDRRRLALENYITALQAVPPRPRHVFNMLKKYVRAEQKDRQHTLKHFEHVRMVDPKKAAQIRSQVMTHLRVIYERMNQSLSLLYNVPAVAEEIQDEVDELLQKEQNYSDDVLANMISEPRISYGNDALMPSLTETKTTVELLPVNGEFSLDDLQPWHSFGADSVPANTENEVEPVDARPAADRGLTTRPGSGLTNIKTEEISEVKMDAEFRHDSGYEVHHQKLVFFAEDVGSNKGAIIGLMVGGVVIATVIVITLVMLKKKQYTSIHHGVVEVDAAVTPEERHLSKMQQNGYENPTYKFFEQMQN
# Sequence of Acetylcholinesterase (Electrophorus electricus, UniProt O42275) (O42275 whole entry): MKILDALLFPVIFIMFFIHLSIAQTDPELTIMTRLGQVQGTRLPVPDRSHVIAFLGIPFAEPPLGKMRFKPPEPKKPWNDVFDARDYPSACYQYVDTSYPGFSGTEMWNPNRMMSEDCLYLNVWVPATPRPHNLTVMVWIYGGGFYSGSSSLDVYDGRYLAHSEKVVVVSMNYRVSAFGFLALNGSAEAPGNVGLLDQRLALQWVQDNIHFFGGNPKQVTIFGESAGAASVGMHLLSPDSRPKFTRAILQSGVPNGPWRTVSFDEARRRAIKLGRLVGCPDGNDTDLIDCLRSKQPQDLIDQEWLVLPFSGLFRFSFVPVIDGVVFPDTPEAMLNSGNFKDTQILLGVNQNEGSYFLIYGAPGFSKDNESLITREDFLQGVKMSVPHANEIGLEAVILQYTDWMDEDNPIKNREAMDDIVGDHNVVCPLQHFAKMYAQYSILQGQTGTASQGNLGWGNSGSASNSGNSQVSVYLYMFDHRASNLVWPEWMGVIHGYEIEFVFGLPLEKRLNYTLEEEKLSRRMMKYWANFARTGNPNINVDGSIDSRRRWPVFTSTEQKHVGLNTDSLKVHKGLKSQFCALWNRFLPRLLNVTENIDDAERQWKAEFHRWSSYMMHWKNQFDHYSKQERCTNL
# Sequence of Acetylcholinesterase (Electrophorus electricus) (O42275 24-633 limits assumed): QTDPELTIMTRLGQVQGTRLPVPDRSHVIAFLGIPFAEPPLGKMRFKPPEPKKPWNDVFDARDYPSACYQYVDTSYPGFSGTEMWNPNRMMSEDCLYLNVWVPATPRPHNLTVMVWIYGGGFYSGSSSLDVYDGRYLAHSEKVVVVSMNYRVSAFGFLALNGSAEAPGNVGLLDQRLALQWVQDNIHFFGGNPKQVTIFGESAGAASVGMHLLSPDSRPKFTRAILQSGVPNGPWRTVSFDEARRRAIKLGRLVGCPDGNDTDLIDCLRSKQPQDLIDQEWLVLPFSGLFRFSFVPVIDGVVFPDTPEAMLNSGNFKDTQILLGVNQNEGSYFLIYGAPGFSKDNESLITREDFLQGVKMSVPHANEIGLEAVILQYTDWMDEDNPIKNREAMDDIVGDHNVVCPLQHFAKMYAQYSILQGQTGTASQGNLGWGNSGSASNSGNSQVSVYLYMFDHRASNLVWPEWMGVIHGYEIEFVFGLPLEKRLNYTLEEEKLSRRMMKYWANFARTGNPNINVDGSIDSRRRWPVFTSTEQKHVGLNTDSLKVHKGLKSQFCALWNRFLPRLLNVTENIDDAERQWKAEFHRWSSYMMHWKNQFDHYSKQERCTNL
# Sequence of Cholinesterase (Equus caballus, UniProt P81908) (P81908 whole entry): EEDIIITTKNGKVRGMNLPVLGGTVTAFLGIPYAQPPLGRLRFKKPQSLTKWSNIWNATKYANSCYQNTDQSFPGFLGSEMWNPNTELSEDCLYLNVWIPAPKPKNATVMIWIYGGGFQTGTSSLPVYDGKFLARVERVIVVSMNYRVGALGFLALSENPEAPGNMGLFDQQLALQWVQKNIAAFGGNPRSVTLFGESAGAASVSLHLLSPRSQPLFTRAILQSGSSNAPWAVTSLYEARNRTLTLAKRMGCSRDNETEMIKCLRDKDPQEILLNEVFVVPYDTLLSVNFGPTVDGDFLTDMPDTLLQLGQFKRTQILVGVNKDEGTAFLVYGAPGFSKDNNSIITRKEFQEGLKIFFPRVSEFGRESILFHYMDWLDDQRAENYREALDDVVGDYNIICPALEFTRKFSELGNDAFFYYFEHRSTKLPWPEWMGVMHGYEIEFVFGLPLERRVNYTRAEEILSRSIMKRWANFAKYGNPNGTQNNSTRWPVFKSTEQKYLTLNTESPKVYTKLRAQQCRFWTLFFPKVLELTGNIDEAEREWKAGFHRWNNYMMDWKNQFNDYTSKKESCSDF
# T1 sequence (P22303 whole entry): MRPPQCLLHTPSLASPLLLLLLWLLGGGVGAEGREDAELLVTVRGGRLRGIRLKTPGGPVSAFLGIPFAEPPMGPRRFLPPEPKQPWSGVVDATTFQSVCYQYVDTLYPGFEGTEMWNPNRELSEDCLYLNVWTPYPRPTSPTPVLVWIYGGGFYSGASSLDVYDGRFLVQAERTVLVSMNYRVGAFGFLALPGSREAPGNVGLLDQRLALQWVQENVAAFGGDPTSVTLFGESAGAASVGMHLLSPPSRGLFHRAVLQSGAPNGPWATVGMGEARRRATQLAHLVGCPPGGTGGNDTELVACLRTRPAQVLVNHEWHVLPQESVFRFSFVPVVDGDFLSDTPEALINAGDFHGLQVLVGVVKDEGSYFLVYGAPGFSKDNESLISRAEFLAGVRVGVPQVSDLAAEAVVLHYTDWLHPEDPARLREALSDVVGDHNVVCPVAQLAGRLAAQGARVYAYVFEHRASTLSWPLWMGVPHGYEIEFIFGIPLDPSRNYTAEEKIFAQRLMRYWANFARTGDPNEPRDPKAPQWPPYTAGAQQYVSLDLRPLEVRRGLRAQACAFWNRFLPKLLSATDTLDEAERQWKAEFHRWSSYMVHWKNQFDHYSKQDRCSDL
# Sequence of Cholinesterase (Equus caballus) (P81908 whole entry): as the sequence (P81908 whole entry) above
smiles,measurement,setting,value
CN(Cc1ccccc1)Cc1ccc(NC(=O)c2ccccc2)cc1,inhibition,[1],38%
same,Activity,[2],0.36 equiv
same,IC50,Cholinesterase [3],5.3 µM
same,inhibition,[4],35.2%
CN(Cc1ccccc1)Cc1ccc(NC(=O)/C=C/c2ccc(Cl)cc2)cc1,inhibition,[1],41%
same,Activity,[2],0.82 equiv
same,inhibition,[5],32%
same,inhibition,[4],58.6%
CCN(Cc1ccccc1)Cc1ccc(NC(=O)Cc2ccc(O)c(O)c2)cc1,Activity,[2],3.25 equiv
same,"Papp at 16 h, 50 ug/mL",[6],4.41 ×10⁻⁶ cm/s
same,IC50,Acetylcholinesterase [7],7.26 µM
same,IC50,Cholinesterase [3],5.95 µM
same,IC50,Cholinesterase [8],2.4 µM
same,Activity,PC-12 [9],Active
same,Activity,PC-12 [10],Non-Toxic
same,IC50,Acetylcholinesterase [11],3.63 µM
same,Ratio IC50,[12],1.54
same,inhibition,[4],42.1%
CN(Cc1ccccc1)Cc1ccc(NC(=O)/C=C/c2ccc(O)c(O)c2)cc1,Activity (mole fraction),[13],0.67
same,Activity,[2],4.24 equiv
same,Activity,[14],245 nm
same,"Papp at 16 h, 50 ug/mL",[6],5.34 ×10⁻⁶ cm/s
same,IC50,Acetylcholinesterase [7],5.42 µM
same,inhibition,[15],87.4%
same,IC50,Cholinesterase [3],9.72 µM
same,Activity,Mus musculus [16],Active
same,IC50,Cholinesterase [8],8.01 µM
same,Activity,PC-12 [9],Active
same,inhibition,Acetylcholinesterase [17],Active
same,Activity,PC-12 [10],Non-Toxic
same,Activity,[18],Active
same,IC50,Acetylcholinesterase [11],4.64 µM
same,Activity,[19],Active
same,Ratio IC50,[12],2.1
same,Activity,[20],274 nm
same,inhibition,[21],Active
same,inhibition,[4],56.2%
same,Activity,[22],inactive
same,Activity,Mus musculus [23],Active
CN(Cc1ccccc1)Cc1ccc(NC(=O)/C=C/c2ccc(O)cc2)cc1,Activity,[2],2.13 equiv
same,IC50,Cholinesterase [3],9.5 µM
same,IC50,Acetylcholinesterase [11],4.85 µM
same,Ratio IC50,[12],1.95
same,inhibition,[4],56.6%
COc1cc(/C=C/C(=O)O)ccc1O,Activity,[2],2.56 equiv
COc1ccc(/C=C/C(=O)Nc2ccc(CN(C)Cc3ccccc3)cc2)cc1,Activity,[2],1.34 equiv
same,IC50,Acetylcholinesterase [7],4.56 µM
same,IC50,Cholinesterase [3],8.21 µM
same,IC50,Cholinesterase [8],6.4 µM
same,IC50,Acetylcholinesterase [11],3.72 µM
same,Ratio IC50,[12],2.2
same,inhibition,[4],57.8%
CC(=O)[C@H]1CC[C@H]2[C@@H]3CCC4=CC(=O)CC[C@]4(C)[C@H]3CC[C@]12C [PROGESTERONE],"Papp at 16 h, 50 ug/mL",[6],8.62 ×10⁻⁶ cm/s
CCN(Cc1ccccc1)Cc1ccc(NC(=O)c2ccccc2)cc1,inhibition,[1],33%
same,Activity,[2],0.32 equiv
same,IC50,Cholinesterase [3],13.9 µM
same,inhibition,[4],37.1%
COc1ccc(/C=C/C(=O)Nc2ccc(CN(C)Cc3ccccc3)cc2)cc1OC,Activity,[2],1.28 equiv
same,"Papp at 16 h, 50 ug/mL",[6],7.56 ×10⁻⁶ cm/s
same,IC50,Acetylcholinesterase [7],2.96 µM
same,IC50,Cholinesterase [3],3.72 µM
same,IC50,Cholinesterase [8],1.56 µM
same,IC50,Acetylcholinesterase [11],1.94 µM
same,Ratio IC50,[12],1.9
same,inhibition,[4],56.6%
COc1ccc(CC(=O)Nc2ccc(CN(C)Cc3ccccc3)cc2)cc1O,Activity,[2],1.5 equiv
same,"Papp at 16 h, 50 ug/mL",[6],4.37 ×10⁻⁶ cm/s
same,IC50,Acetylcholinesterase [7],3.04 µM
same,IC50,Cholinesterase [3],2.4 µM
same,IC50,Cholinesterase [8],1.29 µM
same,Activity,PC-12 [9],Active
same,Activity,PC-12 [10],Non-Toxic
same,IC50,Acetylcholinesterase [11],1.05 µM
same,Ratio IC50,[12],2.29
same,inhibition,[4],42.5%
Cc1c(C)c2c(c(C)c1O)CCC(C)(C(=O)O)O2 (stereo not drawn),Activity,PC-12 [24],Active
NCCc1ccc(O)c(O)c1 [DOPAMINE],"Papp at 16 h, 50 ug/mL",[6],0.45 ×10⁻⁶ cm/s
CCN(Cc1ccccc1)Cc1ccc(NC(=O)Cc2ccc(O)cc2)cc1,Activity,[2],1.35 equiv
same,IC50,Acetylcholinesterase [7],6.5 µM
same,IC50,Cholinesterase [3],4.45 µM
same,IC50,Cholinesterase [8],2.03 µM
same,IC50,Acetylcholinesterase [11],3.82 µM
same,Ratio IC50,[12],1.16
same,inhibition,[4],42.1%
CCN(Cc1ccccc1)Cc1ccc(NC(=O)Cc2ccccc2)cc1,Activity,[2],0.26 equiv
same,IC50,Cholinesterase [3],13.9 µM
same,IC50,Acetylcholinesterase [11],6.63 µM
same,Ratio IC50,[12],1.5
same,inhibition,[4],38.1%
CCN(Cc1ccccc1)Cc1ccc(NC(=O)Cc2ccc(OC)c(OC)c2)cc1,Activity,[2],0.48 equiv
same,IC50,Acetylcholinesterase [7],3.22 µM
same,IC50,Cholinesterase [3],3.3 µM
same,IC50,Cholinesterase [8],1.21 µM
same,IC50,Acetylcholinesterase [11],1.55 µM
same,Ratio IC50,[12],2.13
same,inhibition,[4],40.6%
COc1ccc(CC(=O)Nc2ccc(CN(C)Cc3ccccc3)cc2)cc1OC,Activity,[2],0.5 equiv
same,IC50,Acetylcholinesterase [7],1.85 µM
same,IC50,Cholinesterase [3],1.48 µM
same,IC50,Cholinesterase [8],1.05 µM
same,IC50,Acetylcholinesterase [11],1.06 µM
same,Ratio IC50,[12],1.4
same,inhibition,[4],38.5%
CN(Cc1ccccc1)Cc1ccc(NC(=O)CCc2ccccc2)cc1,inhibition,[1],45%
same,Activity,[2],0.3 equiv
same,IC50,Cholinesterase [3],5.29 µM
same,inhibition,[4],35.2%
COc1cc(/C=C/C(=O)Nc2ccc(CN(C)Cc3ccccc3)cc2)ccc1O,Activity,[2],2.86 equiv
same,"Papp at 16 h, 50 ug/mL",[6],6.21 ×10⁻⁶ cm/s
same,IC50,Acetylcholinesterase [7],8.32 µM
same,IC50,Cholinesterase [3],8.78 µM
same,IC50,Cholinesterase [8],5.12 µM
same,Activity,PC-12 [9],Active
same,Activity,PC-12 [10],Non-Toxic
same,IC50,Acetylcholinesterase [11],3.99 µM
same,Ratio IC50,[12],2.2
same,inhibition,[4],56.8%
CN(Cc1ccccc1)Cc1ccc(NC(=O)Cc2ccc(O)cc2)cc1,Activity,[2],1.38 equiv
same,IC50,Acetylcholinesterase [7],3.24 µM
same,IC50,Cholinesterase [3],3.48 µM
same,IC50,Cholinesterase [8],4.32 µM
same,IC50,Acetylcholinesterase [11],2.26 µM
same,Ratio IC50,[12],2.12
same,inhibition,[4],38.5%
COc1cc2cc(-c3ccc(CN(C)Cc4ccccc4)cc3)c(=O)oc2cc1OC,IC50,Cholinesterase [3],12.4 µM
same,IC50,Acetylcholinesterase [11],0.04 µM
same,Ratio IC50,[12],315
CN(Cc1ccccc1)Cc1ccc(NC(=O)/C=C/c2ccccc2)cc1,Activity,[2],1.1 equiv
same,IC50,Cholinesterase [3],8.21 µM
same,IC50,Acetylcholinesterase [11],5.27 µM
same,Ratio IC50,[12],1.55
same,inhibition,[4],56.8%
CCN(Cc1ccccc1)Cc1ccc(NC(=O)Cc2ccc(OC)c(O)c2)cc1,Activity,[2],1.48 equiv
same,IC50,Acetylcholinesterase [7],2.76 µM
same,IC50,Cholinesterase [3],3.29 µM
same,IC50,Cholinesterase [8],1.46 µM
same,IC50,Acetylcholinesterase [11],1.89 µM
same,Ratio IC50,[12],1.76
same,inhibition,[4],43.5%
CN(Cc1ccccc1)Cc1ccc(NC(=O)Cc2ccc(O)c(O)c2)cc1,Activity,[2],3.26 equiv
same,"Papp at 16 h, 50 ug/mL",[6],3.9 ×10⁻⁶ cm/s
same,IC50,Acetylcholinesterase [7],4.63 µM
same,IC50,Cholinesterase [3],2.28 µM
same,IC50,Cholinesterase [8],0.95 µM
same,Activity,PC-12 [9],Active
same,Activity,PC-12 [10],Non-Toxic
same,IC50,Acetylcholinesterase [11],1.68 µM
same,Ratio IC50,[12],1.36
same,inhibition,[4],40.5%
CN1C(C(=O)Nc2ccccn2)=C(O)c2ccccc2S1(=O)=O [PIROXICAM],"Papp at 16 h, 50 ug/mL",[6],3.29 ×10⁻⁶ cm/s
CCN(CC)CCCC(C)Nc1ccnc2cc(Cl)ccc12 (stereo not drawn),inhibition,[15],48.8%
CN(Cc1ccccc1)Cc1ccc(NC(=O)Cc2ccccc2)cc1,Activity,[2],0.38 equiv
same,IC50,Acetylcholinesterase [7],5.8 µM
same,IC50,Cholinesterase [3],5.28 µM
same,IC50,Cholinesterase [8],4.95 µM
same,IC50,Acetylcholinesterase [11],3.24 µM
same,Ratio IC50,[12],1.63
same,inhibition,[4],33.5%
CN(Cc1ccccc1)Cc1ccc(NC(=O)/C=C/c2ccc([N+](=O)[O-])cc2)cc1,inhibition,[1],35%
same,Activity,[2],0.8 equiv
same,inhibition,[5],24%
same,inhibition,[4],52.8%
CCN(Cc1ccccc1)Cc1ccc(NC(=O)CCc2ccccc2)cc1,inhibition,[1],34%
same,Activity,[2],0.32 equiv
same,IC50,Cholinesterase [3],13.9 µM
same,inhibition,[4],36.1%
Clc1cccc(Cl)c1N=C1NCCN1 [CLONIDINE],"Papp at 16 h, 50 ug/mL",[6],3.1 ×10⁻⁶ cm/s
COc1ccc2[nH]cc(CCNC(C)=O)c2c1,Activity,PC-12 [24],Active
